# Laboratory results as given in patent US20090176772A1, “METHOD OF REVERSING LEFT VENTRICULAR REMODELING” (priority 2004, published 2009).
# What was measured:
# [1] = tested on: dogs with chronic heart failure produced by multiple sequential intracoronary microembolizations; experiment: Hemodynamic measurements in dogs with chronic heart failure, 3 months oral therapy; type: in vivo, dog
# From the text: (§1) The following example examines the effects of ranolazine alone and in combination with an angiotensin converting enzyme (ACE) inhibitor and in combination with a beta-blocker on the progression of left ventricular (LV) dysfunction and LV chamber remodeling in dogs with chronic heart failure produced by multiple sequential intracoronary microembolizations.
# (§2) Chronic LV dysfunction and failure in dogs was produced by multiple sequential intracoronary embolizations with polystyrene Latex microspheres (77-109 μm in diameter) as previously described by Sabbah et al. (1991) Am. J. Physiol. 260:H1379-H1384. Coronary microembolizations were performed during cardiac catheterization under general anesthesia and sterile conditions. Anesthesia was induced using a combination of intravenous injections of hydromorphone (0.22 mg/kg), diazepam (0.2-0.6 mg/kg) and sodium pentobarbital 50-100 mg to effect. Plane of anesthesia was maintained throughout the study using 1% to 2% isoflurane. Left and right heart catheterization was performed via a femoral arteriotomy and venotomy. After each catheterization, the vessels were repaired using 6-0 silk and the skin closed with 4-0 suture. Microembolizations were discontinued when LV ejection fraction, determined angiographically, was between 30% and 40%. A period of 2 weeks was allowed after the last embolization to ensure that infarctions produced by the last microembolizations have completely healed and heart failure was established. The study protocol was then performed.
# (§3) Healthy, conditioned, purpose-bred mongrel dogs weighing between 19 and 25 kg.
# (§4) A randomized, blinded, placebo controlled study design was used. A total of 28 dogs underwent multiple sequential intracoronary microembolizations as described above to produce chronic heart failure. Two weeks after the last embolization, dogs were randomized into 4 study groups (treatment arms). Dogs were randomized to 3 months oral therapy with ranolazine alone (375 mg, bid, n=7), ranolazine (375 mg bid) in combination with metoprolol tartrate (25 mg bid, n=7), ranolazine (375 mg bid) in combination with enalapril (10 mg bid, n=7), or placebo (ranolazine vehicle bid, n=7). Hemodynamic, angiographic, echocardiographic, Doppler and neurohumoral measurements were made prior to randomization (2 weeks after the last embolization) and after completion of therapy (3 months after initiating therapy). After completing the final hemodynamic and angiographic study, dogs were euthanized and the hearts removed and tissue prepared and saved for future histological and biochemical evaluations. The study primary and secondary end-points were as follows:
# All hemodynamic measurements were made during left and right heart catheterizations in anesthetized dogs. Baseline measurements, prior to any microembolizations, were be made to ensure that all hemodynamic parameters are within normal limits. Abnormal dogs were excluded from the study. The following parameters were measured in all dogs at all three study time periods: heart rate, mean aortic pressure, peak rate of change of LV pressure during isovolumic contraction (peak+dP/dt) and relaxation (peak−dP/dt), and LV end-diastolic pressure.
# To ensure that all study measures were similar at baseline, comparisons were made between all 4 study groups before any embolizations and at the time of randomization before initiation of therapy. For these comparisons, a one way analysis of variance (ANOVA) was used with a set at 0.05. If significance was attained, then group wise comparisons were made using the Student-Newman-Kuels test with significance set at p≦0.05. Within group comparisons between pre-treatment and post-treatment measures were made using a Students paired t-test with p<0.05 considered significant. To assess treatment effect, the change (Δ) in each measure from pre-treatment to post-treatment was calculated for each of the 4 study arms. […]
# [2] = tested on: dogs with chronic heart failure produced by multiple sequential intracoronary microembolizations; experiment: Ventriculographic measurements (LV volumes, ejection fraction) in dogs with chronic heart failure; type: in vivo, dog
# From the text: as §1, §2, §3, §4
# Left ventriculograms were performed during cardiac catheterization after completion of the hemodynamic measurements. Ventriculograms were performed with the dog placed on its right side and were recorded on 35 mm cine at 30 frames per second during a power injection of 20 ml of contrast material (RENO-M-60, Squibb Diagnostics). Correction for image magnification was made using a radiopaque grid placed at the level of the LV. LV end-systolic and end-diastolic volumes were calculated from angiographic silhouettes using the area length method (4). Premature beats and postextrasystolic beats were excluded from any analysis. LV ejection fraction was calculated as the ratio of the difference of end-diastolic and end-systolic volumes to end-diastolic volume times 100. Stroke volume was calculated as the difference between LV end-diastolic and end-systolic volumes. Cardiac output was calculated as the stroke volume times heart rate and cardiac index as the cardiac output divided by body surface area.
# To ensure that all study measures were similar at baseline, comparisons were made between all 4 study groups before any embolizations and at the time of randomization before initiation of therapy. For these comparisons, a one way analysis of variance (ANOVA) was used with a set at 0.05. […]
# [3] = POST: after 3 months of oral therapy bid, mean±SEM
# [4] = PRE: at time of randomization, before therapy, mean±SEM
# [5] = at the end of 3 months of treatment
# [6] = change from pre-treatment to post-treatment (3 months), mean±SEM
smiles,measurement,setting,value
"COc1ccccc1OCC(O)CN1CCN(CC(=O)Nc2c(C)cccc2C)CC1 (racemic) [RAN Alone, (±)-N-(2,6-dimethylphenyl)-4-[2-hydroxy-3-(2-methoxyphenoxy)-propyl]-1-piperazineacetamide]",+dP/dt = peak LV +dP/dt,[1]; [3],1416 ± 124 mmHg/sec
same,HR = heart rate,[1]; [3],80 ± 4 beats/min
same,LVEDP = LV end-diastolic pressure,[1]; [3],10 ± 1 mmHg
same,mAoP = mean aortic pressure,[1]; [3],81 ± 7 mmHg
same,−dP/dt = peak LV −dP/dt,[1]; [3],1460 ± 134 mmHg/sec
same,+dP/dt = peak LV +dP/dt,[1]; [4],1253 ± 119 mmHg/sec
same,HR = heart rate,[1]; [4],77 ± 2 beats/min
same,LVEDP = LV end-diastolic pressure,[1]; [4],14 ± 1 mmHg
same,mAoP = mean aortic pressure,[1]; [4],72 ± 3 mmHg
same,−dP/dt = peak LV −dP/dt,[1]; [4],1254 ± 74 mmHg/sec
same,"LV end-diastolic pressure, intra-group comparison pre- vs post-treatment",[1]; [5],decreased significantly
same,Δ +dP/dt (peak LV +dP/dt),[1]; [6],163 ± 81 mmHg/sec
same,Δ HR (heart rate),[1]; [6],3.3 ± 4.9 beats/min
same,Δ LVEDP (LV end-diastolic pressure),[1]; [6],−4.4 ± 1.1 mmHg
same,Δ mAoP (mean aortic pressure),[1]; [6],9.1 ± 6.9 mmHg
same,Δ −dP/dt (peak LV −dP/dt),[1]; [6],206 ± 109 mmHg/sec
same,CI = cardiac index,[2]; [3],2.3 ± 0.2 L/min/m^2
same,CO = cardiac output,[2]; [3],1.91 ± .18 L/min
same,EDV = LV end-diastolic volume,[2]; [3],65 ± 2 mL
same,EF = LV ejection fraction,[2]; [3],37 ± 2 %
same,ESV = LV end-systolic volume,[2]; [3],41 ± 2 mL
same,SV = stroke volume,[2]; [3],24 ± 1 mL
same,CI = cardiac index,[2]; [4],2.0 ± 0.2 L/min/m^2
same,CO = cardiac output,[2]; [4],1.67 ± .11 L/min
same,EDV = LV end-diastolic volume,[2]; [4],63 ± 3 mL
same,EF = LV ejection fraction,[2]; [4],35 ± 1%
same,ESV = LV end-systolic volume,[2]; [4],41 ± 2 mL
same,SV = stroke volume,[2]; [4],22 ± 1 mL
same,"LV ejection fraction, intra-group comparison pre- vs post-treatment",[2]; [5],increased significantly
same,"LV end-diastolic volume, intra-group comparison pre- vs post-treatment",[2]; [5],remained unchanged
same,"LV end-systolic volume, intra-group comparison pre- vs post-treatment",[2]; [5],remained unchanged
same,Δ CI (cardiac index),[2]; [6],0.3 ± 0.1 L/min/m^2
same,Δ CO (cardiac output),[2]; [6],0.24 ± .10 L/min
same,Δ EDV (LV end-diastolic volume),[2]; [6],2 ± 1 mL
same,Δ EF (LV ejection fraction),[2]; [6],2 ± 1 %
same,Δ ESV (LV end-systolic volume),[2]; [6],0 ± 1 mL
same,Δ SV (stroke volume),[2]; [6],2 ± 1 mL
same,Ability to reduce LV end-diastolic volume (FIG. 1),[2]; data of Example 1,"neither ranolazine, enalapril, nor metoprolol were independently able to reduce LV end-diastolic volume"
same,Ability to reduce LV end-systolic volume (FIG. 2),[2]; data of Example 1,"neither ranolazine, enalapril, nor metoprolol appear to independently reduce LV end-systolic volume"
